ChEMBL document CHEMBL1201862, “PubChem BioAssay data set” (2004)
Active and inactive are the calls of the source.

Assays:
[1] = target: Voltage-gated inwardly rectifying potassium channel KCNH2 (Homo sapiens, UniProt Q12809); experiment: hERG protection from proarrhythmic block, potency, dose response, cell-based, thallium flux (AID 2121); type: ADME
Major prion protein = Major prion protein (Homo sapiens, UniProt P04156); type: functional, cell-based
cells [2] = experiment: cells
[3] = target: Eukaryotic translation initiation factor 4E (Mus musculus, UniProt P63073); experiment: eIF4E–eIF4G protein interaction inhibitors, dose response, biochemical, TR-FRET (AID 855); type: functional;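 note: potency for disrupting eIF4E binding to eIF4GI seen as loss of FRET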
[4] = THP-1 cell cytotoxicity, dose response, cytotoxicity control for Vif-APOBEC3G degradation inhibitor project, THP-1 cells (AID 1117359); type: functional; conditions: Human immunodeficiency virus 1, THP-1
HEK293 = experiment: inhibitors of LMP1-driven NF-kB reporter, dose response, cell-based, HEK293, luciferase, cherry-pick (AID 588343); type: functional; conditions: Homo sapiens
[5] = LGR2 antagonists, dose response, cell-based, HEK293, CRE-luciferase reporter, cherry pick, set 2 (AID 743343); type: functional;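 note: transfected cells were stimulated with diluted bursicon conditioned medium after compound addition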
[6] = MC4R antagonists, dose response, counter-screen for LGR2 antagonist project, cell-based, plate reader, cherry pick (AID 743444); type: functional;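 note: transfected HEK 293 cells stimulated with alpha-MSH peptide; potency of inhibitors of the alpha-MSH evoked signal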
[7] = target: T1, Acyl-homoserine lactone acylase PvdQ (Pseudomonas aeruginosa (strain LESB58), UniProt Q9I194); experiment: P. aeruginosa PvdQ acylase inhibitors, dose response, biochemical, fluorescence, plate reader and imaging, cherry-picks (AID 493231)
T1 sequence (Q9I194 whole entry): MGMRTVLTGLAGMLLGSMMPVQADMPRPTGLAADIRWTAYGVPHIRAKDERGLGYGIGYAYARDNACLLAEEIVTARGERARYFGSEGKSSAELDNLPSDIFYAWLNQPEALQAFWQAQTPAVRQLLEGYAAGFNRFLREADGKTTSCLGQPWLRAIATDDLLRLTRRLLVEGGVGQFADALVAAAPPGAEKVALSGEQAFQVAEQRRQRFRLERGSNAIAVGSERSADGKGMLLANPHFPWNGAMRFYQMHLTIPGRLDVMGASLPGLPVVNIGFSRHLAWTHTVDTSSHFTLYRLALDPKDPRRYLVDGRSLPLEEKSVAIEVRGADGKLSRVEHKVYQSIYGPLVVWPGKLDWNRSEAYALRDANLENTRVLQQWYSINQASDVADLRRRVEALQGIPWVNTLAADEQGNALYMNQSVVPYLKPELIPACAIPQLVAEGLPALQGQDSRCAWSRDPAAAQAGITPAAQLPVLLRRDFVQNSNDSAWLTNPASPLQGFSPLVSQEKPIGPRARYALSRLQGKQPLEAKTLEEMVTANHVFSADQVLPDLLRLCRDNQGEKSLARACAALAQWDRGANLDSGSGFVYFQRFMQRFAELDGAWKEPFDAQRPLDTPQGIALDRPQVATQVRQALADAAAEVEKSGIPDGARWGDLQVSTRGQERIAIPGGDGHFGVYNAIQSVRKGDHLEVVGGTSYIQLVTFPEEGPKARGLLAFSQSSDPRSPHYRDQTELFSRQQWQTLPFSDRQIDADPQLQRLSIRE

[8] = target: Luciferin 4-monooxygenase (Photinus pyralis, UniProt P08659); experiment: Counter Screen for Luciferase-based Assay Positives. [Related pubchem assays: 620, 618, 411 ]
HT-1080 = experiment: cytotoxicity in HT1080 fibrosarcoma cells, cell-based, fluorescence readout (AID 620); type: functional; conditions: Homo sapiens
Kallikrein-7 = Kallikrein-7 (Homo sapiens, UniProt P49862); experiment: Fluorescence Intensity-based biochemical primary high throughput dose response assay to identify activators of kallikrein-7 (K7) zymogen.
[9] = target: G-protein coupled receptor 55 (Homo sapiens, UniProt Q9Y2T6); experiment: GPR55 agonists via beta-arrestin recruitment, primary screen, imaging, U2OS cells, beta-arrestin-GFP redistribution (AID 1961); type: functional
Cytochrome P450 3A4 = Cytochrome P450 3A4 (Homo sapiens, UniProt P08684);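 note: CYP3A4 tested as one member of a cytochrome P450 panel screen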
[10] = target: FAD-linked sulfhydryl oxidase ALR (Homo sapiens, UniProt P55789); experiment: inhibitors of human ALR sulfhydryl oxidase, dose response, biochemical, H2O2 detection, luminescence, cherry-pick (AID 493248)
[11] = THP-1 cell cytotoxicity, dose response, cytotoxicity control for non-replicating M. tuberculosis project (AID 489025); type: functional
[12] = HepG2 cell cytotoxicity, dose response, cytotoxicity control for non-replicating M. tuberculosis project (AID 489018); type: functional; conditions: Mycobacterium tuberculosis
cells [13] = type: functional
[14] = system: Streptococcus sp. 'group A'; experiment: growth inhibition of control SK(-) GAS strain, dose response, counter-screen for streptokinase expression inhibitor project, luminescence, kanamycin, BacTiterGlo, confirmation (AID 1900); type: functional, organism-based
[15] = microbe, parasite or virus in culture; type: functional; conditions: Mycobacterium tuberculosis
Streptococcus = experiment: Group A Streptococcus viability loss, dose response, counter-screen for streptokinase expression inhibitor project, luminescence, BacTiterGlo (AID 1915); type: functional, organism-based;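 note: potency for reduction of bacterial viability or growth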
[16] = HepG2 cell cytotoxicity, dose response, cytotoxicity control, plate reader, cherry-pick, antagonist series (AID 743416); type: functional, cell-based
Paired box protein Pax-8 = Paired box protein Pax-8 (Homo sapiens, UniProt Q06710); experiment: inhibitors of PAX8-driven TPO luciferase reporter, dose response, RMG-I cells, cherry-pick (AID 687027); type: functional, cell-based;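 note: luciferase reporter driven by Pax8 target thyroperoxidase promoter measured by SteadyGlo luminescence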
[17] = NIH:OVCAR-3 ovarian cancer cell cytotoxicity, dose response, PAX8 inhibitor project, plate reader, dry powder samples (AID 743044); type: functional, cell-based
[18] = cytotoxicity in OVCAR8 ovarian cancer cells, dose response, PAX8 project, cell-based, plate reader, dry powder samples (AID 743197); type: functional; conditions: OVCAR-8
[19] = P. falciparum 3D7-ScDHODH growth inhibitors, dose response, SYBR Green, dry powder samples (AID 1159570); type: functional, cell-based;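 note: parasite growth measured after 72 hours of compound exposure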
[20] = P. falciparum Dd2 growth inhibitors, dose response, SYBR Green, cherry-picked samples (AID 1159567); type: functional, cell-based
[21] = P. falciparum Dd2 growth inhibitors, dose response, SYBR Green, dry powder samples (AID 1159566); type: functional, cell-based;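 note: potency for growth inhibition with lower SYBR green DNA signal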
[22] = P. falciparum ATP4 D1247Y mutant growth inhibitors, dose response, NITD609-resistant line, SYBR Green, dry powder (AID 1159571); type: functional, cell-based;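 note: parasites synchronized at ring stage by sorbitol before testing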

Which EC50 [1] does the source give for `O=C(NC(=S)Nc1nc(-c2ccc(Br)cc2)cs1)c1ccco1` here?
Its EC50 is 7.39 µM (active).

With `Cc1nc(SC2CCOC2=O)c2c(C)c(C)sc2n1` (stereo not given) as the molecule, how does the IC50 (Major prion protein) read?
Its IC50 is 1.93 µM (active).

What about the IC50 (cells [2]) of the same molecule?
The IC50 was > 138 µM (inactive).

Which IC50 [3] does the source give for `CC(=O)Nc1cccc(NC(=S)Nc2ccc(F)c(Cl)c2)c1` here?
Its IC50 is 50 µM (inactive).

With `CC(C)CCNC(=O)Cn1c2c(c(-c3ccccc3Cl)cc1=O)CCC2` as the molecule, how does the CC50 [4] read?
The CC50 was > 40 µM (active).

For `COc1ccc(OCC(=O)Nc2nccs2)cc1`, which AC50 (HEK293) is on record?
The AC50 was 4.63 µM (active).

And the AC50 [5]?
The AC50 was 5.35 µM (active).

What about the AC50 [6] of the same molecule?
Its AC50 is 5.99 µM (active).

Which AC50 [7] does the source give for `O=C(NC1CCCCCCC1)c1cccc(Cl)c1` here?
Its AC50 is 5.02 µM (active).

With `OCCCNc1[nH]cnc2c3ccccc3nc1-2` as the molecule, how does the CC50 [4] read?
The CC50 was > 40 µM (active).

Which EC50 [8] does the source give for `Cc1cc(C(=O)CSc2nnc(-c3cccs3)o2)c(C)n1-c1ccccc1` here?
Its EC50 is > 100 µM (not active).

And the EC50 (HT-1080)?
The EC50 was 22.6 µM (active).

And the AC50 (HEK293)?
Its AC50 is 5.59 µM (active).

Which results are given for `Cc1ccc(-c2nc(-c3ccccc3)no2)cc1`?
EC50 [8]: 1.67 µM (active); EC50 (HT-1080): > 50 µM (not active)

With `O=C(NC(=S)Nc1ccccc1)c1cc(-c2ccccc2)nc2ccccc12` as the molecule, how does the EC50 [1] read?
The EC50 was 0.38 µM (active).

For `COc1ccc2cc(C(=O)C3CCCN(C(=O)c4cccnc4)C3)ccc2c1` (stereo not given), which EC50 (Kallikrein-7) is on record?
Its EC50 is 23.7 µM (inactive).

Which EC50 (Kallikrein-7) does the source give for `CCCOC(=O)Oc1ccc2c(=O)c(Oc3cc(C)cc(C)c3)coc2c1` here?
The EC50 was 3.19 µM (active).

With `N#CC1=C(N)OC2=C(CC/C2=C\c2ccccc2)C1c1ccccc1` (stereo not given) as the molecule, how does the EC50 [9] read?
The EC50 was > 32 µM (inactive).

What about the AC50 (Cytochrome P450 3A4) of the same molecule?
The AC50 was 39.8 µM (inconclusive).

For `COc1cc(NC(=O)c2ccco2)c(OC)cc1NC(=O)CCC(=O)Nc1cc(C)ccc1C`, which EC50 (Kallikrein-7) is on record?
Its EC50 is 26.8 µM (inactive).

With `O=C(NC1CCSC1)c1cccc(Cl)c1` (stereo not given) as the molecule, how does the AC50 [7] read?
The AC50 was 4.11 µM (active).

Which results are given for `Cc1nc2cc(-c3nc4cc(N)ccc4o3)ccc2[nH]1`?
EC50 [8]: > 100 µM (not active); EC50 (HT-1080): > 50 µM (not active); AC50 [10]: 1.72 µM (active)

Which results are given for `C=CCn1c(C)cc(C2=NN=C(NCc3ccccc3)SC2)c1C`?
CC50 [11]: 13.8 µM (active); CC50 [12]: > 20 µM (active); IC50 (cells [13]): 10.8 µM (active)

For `Cc1cccc(/C=C2/SC(N/N=C3\CC4CCC3(C)C4(C)C)=NC2=O)c1` (stereo not given), which EC50 [14] is on record?
The EC50 was 1.83 µM (active).

And the CC50 [15]?
Its CC50 is > 40 µM (active).

And the EC50 [1]?
Its EC50 is 0.12 µM (active).

And the EC50 (Streptococcus)?
The EC50 was 1.3 µM (active).

What does the source list for `COc1ccc2c(c1)CCC1(C)CC(=O)C(Br)=C21` (stereo not given)?
IC50 (Major prion protein): 3.21 µM (active); IC50 (cells [2]): > 138 µM (inactive)

With `Cc1ccc(S(=O)(=O)N2[C@@H](CO)CO[C@H]2CC(=O)OCc2ccccc2)cc1` as the molecule, how does the AC50 [16] read?
The AC50 was > 52 µM (inactive).

For `C[C@@H]1CN([C@H](C)CO)C(=O)c2cc(NC(=O)c3ccccc3)ccc2O[C@@H](C)CCCCO[C@@H]1CN(C)Cc1ccc(C(F)(F)F)cc1`, which AC50 (Paired box protein Pax-8) is on record?
The AC50 was 8.24 µM (active).

What about the AC50 [17] of the same molecule?
Its AC50 is 50.2 µM (active).

And the AC50 [18]?
The AC50 was > 70 µM (inactive).

Which results are given for `COC(=O)[C@H](CC1(c2cn(S(=O)(=O)CC[Si](C)(C)C)c3ccccc23)C(=O)Nc2ccccc21)NC(=O)OC(C)(C)C` (stereo not given in full)?
IC50 (Major prion protein): 11.7 µM (inactive); IC50 (cells [2]): > 138 µM (inactive)

For `CO/N=C/c1ccc(Sc2ccccc2)c([N+](=O)[O-])c1`, which AC50 [7] is on record?
Its AC50 is 97.2 µM (active).

What does the source list for `COc1ccc2c3c(n(C)c2c1)[C@@H](CO)N(C(=O)C1CCCC1)CC31CN(C(=O)Nc2cccc(F)c2)C1`?
AC50 [19]: 0.818 µM (active); AC50 [20]: 1.32 µM (active); AC50 [21]: 1.88 µM (active); AC50 [22]: 1.24 µM (active)
